Measured values reported in patent publication US4639468A, “Derivatives of glycinamide, their preparation and their use” (priority 1979, dated 1987).
Like-named read-outs stand apart in the source and are kept apart here.

Tests used:
[1] = tested on: convulsions induced by bicuculline; test: in vivo; details: for bicuculline (score: sum of animals protected by dosages of 10 and 100 mgr/kg): oral, 5 mice each, 3 hours before bicuculline 0.6 mgr/kg i.v., tonic convulsions; for ED50: Mus musculus, iv, 3 h, read-out: DE50
Description: (§1) The anticonvulsive effect was examined for tonic convulsions induced by bicuculline. The compounds of the invention were administrated orally at dosages of 10 and 100 mgr/kg, each to 5 mice, 3 hours before intravenous injection of bicuculline at the dosage of 0.6 mgr/kg. The number of mice protected against tonic convulsions and the number of dead mice were noted.
(§2) Amongst the substances according to the invention, 2-n-pentylaminoacetamideand its hydrochloride were more particularly studied. […] The hydrochloride was also administered intravenously. […] Table III also gives the therapeutical index (LD50/ED50).

in vivo [2] = details: mouse, in vivo, po, read-out: DL50 (the source's name)
in vivo [3] = details: mouse, in vivo, po
Description: as §1, §2

[4] = tested on: convulsions induced by strychnine; test: convulsions induced by strychnine; details: in vivo
mortality caused by KCN = test: protection of mice against mortality caused by KCN; type: in vivo, mouse
mice = test: in vivo; details: oral, mice; Table II
[5] = tested on: decarboxylase glutamate (GAD); test: activity of decarboxylase glutamate (GAD) in homogenizates of rat brain; type: biochemical; details: 10^-4 M
Description: The substances of the invention have the property of inhibiting convulsions induced by bicculline in mouse. […] As a matter of fact, bucuculline is a specific antoganist of GABA. Besides, the effect of the products on the activity of the GABA synthesis enzyme, decarboxylase glutamate (GAD), was studied. The activity of the GAD was determined in homogenizates of rat brain according to the method described by L. Parker (Methods in Enzymology, Ed. S. Fleischer, 1974, Vol. XXXII, part V., p. 779). […] In general, the products of the invention […] the activity of the […] (GABA-T), enzyme of GABA catabolism, which results in an increase of the GABA levels at the level of GABA-ergic neurons.

platelet agglutination = test: inhibition of platelet agglutination in human plasma (turbidimetric method of Born and Cross, Trombofax); type: cell-based; details: human plasma rich in platelets, preincubated 3 minutes before Trombofax
Description: The measure of the inhibition of platelet agglutination is made according to the turbidimetric method of G. V. R. Born and M. J. Cross (J. Physiol. 168, 178, […]). The plasma rich in platelets is preincubated for 3 minutes before introduction of the inductor agent, Trombofax. The inhibion of the maximum amplitude of agglutination is measured by means of Upchurch agglutometer. In this test, compounds 1, 11, 14 and 18 have shown as being active.

SMILES | bicuculline (score: sum of animals protected by dosages of 10 and 100 mgr/kg) [1] | LD50 (in vivo [2]; mice, Table II) [mg/kg] | further results
CCCCCNC(CC)C(N)=O (stereo not drawn) [Compound 48, 2-(n-pentylamino)-butyramide] | 6 |  | 
NC(=O)CNCCCCc1ccccc1 [Compound 52, 2-(4-phenylbutyl)aminoacetamide] | 7 |  | 
CCCCCCN(CC)CC(N)=O [Compound 28] | 5 | 435 | 
CCCC(CCC)C(=O)O [Na Valproate, reference compound] |  |  | selectivity ratio (in vivo [3]): 14; ED50 [1]: 89.1 mg/kg; LD50 (in vivo [2]; Table III): 1250 mg/kg; activity against convulsions induced by strychnine [4]: inactive
C=CCCCCCCNCC(N)=O [Compound 50] | 6 |  | 
CCCCCCCNCC(N)=O [Compound 9, 2-n-Heptylaminoacetamide] | 5 | 1420 | protection against mortality caused by KCN (mortality caused by KCN): protect mice against mortality caused by KCN
C#CC(C)(C)NCC(N)=O [Compound 42, 2-(1,1-dimethylpropyn-2-yl)aminoacetamide] | 6 |  | 
CCCCCCCCCCCCNCC(N)=O [Compound 13, 2-n-docecylaminoacetamide] | 2 | > 3000 | 
CCCCCCNCC(N)=O [Compound 12, 2-n-hexylaminoacetamide] | 5 |  | DL50 (mice): 2800 mg/kg
CCCCCCNCC(N)=O [Compound 27] | 4 |  | DL50 (mice): 860 mg/kg
CCCCCCN(CC(N)=O)C(=O)C(C)(C)C [Compound 45] | 3 |  | 
CCCCCNC(C)C(N)=O (stereo not drawn) [Compound 41] | 4 |  | 
CCCCCNCC(N)=O [Compound 20] | 1 |  | DL50 (mice): > 1000 mg/kg
NC(=O)CNCCCCO [Compound 7] | 2 |  | 
COC(=O)CCCCCNCC(N)=O [Compound 8] | 1 | > 3000 | effect on the activity of GAD [5]: particularly remarkable
CCCCCCCCCNCC(N)=O [Compound 11] | 2 | 1950 | inhibition of platelet agglutination (platelet agglutination): active
CCCCCCN(CC(N)=O)C(=O)OCC [Compound 47, Ethyl N-n-hexyl-N-carboxamidomethylcarbamate] | 8 |  | 
CCCCCCCCCCNCC(N)=O [Compound 14, 2-n-decylaminoacetamide] | 6 | 2600 | inhibition of platelet agglutination (platelet agglutination): active
O=C1NC(=O)C(c2ccccc2)(c2ccccc2)N1 [Na Diphenylhydantoin, reference compound] |  |  | ED50 [1]: 2.63 mg/kg
CCCCCCCC(C)NCC(N)=O (stereo not drawn) [Compound 18] | 2 | > 1000 | inhibition of platelet agglutination (platelet agglutination): active
CCCCCNCC(N)=O [Compound 34] | 5 |  | DL50 (mice): > 3000 mg/kg
NC(=O)CNCCC(c1ccccc1)c1ccccc1 [Compound 56] | 4 |  | 
CCCCCCCCC=CCCCCCCCCNCC(N)=O [Compound 17, 2-n-octadecen-9-ylaminoacetamide] | 2 | > 3000 | 
CCOC(=O)CCCCCCCNCC(N)=O [Compound 16] | 5 | > 1000 | 

SMILES | bicuculline (score: sum of animals protected by dosages of 10 and 100 mgr/kg) [1] | LD50 (in vivo [2]; mice, Table II) [mg/kg] | further results
CCC1(c2ccccc2)C(=O)NC(=O)NC1=O [Na Phenobarbital, reference compound] |  |  | selectivity ratio (in vivo [3]): 88; ED50 [1]: 2.11 mg/kg; LD50 (in vivo [2]; Table III): 185 mg/kg
CCCCCCNCC(N)=O [Compound 2, 2-n-hexylaminoacetamide] | 4 |  | DL50 (mice): 780 mg/kg
NC(=O)CNCCCCCCCC(=O)O [Compound 51, 8-carboxamidomethylaminooctanoic acid] | 6 |  | 
C=CCCCCCNCC(N)=O [Compound 40] | 4 |  | 
NC(=O)CN(CCCCCCO)CC(N)=O [Compound 5] | 2 | > 3000 | 
COC(=O)CCCCCN(CC(N)=O)CC(N)=O [Compound 6, Methyl 6-(dicarboxamidomethyl)aminohexanoate] | 6 | > 3000 | 
CCCCCCN(CC(N)=O)C(=O)c1ccccc1 [Compound 25] | 5 | 3660 | 
CCCCCCNCC(=O)Nc1cccc(Cl)c1 [Compound 53] | 4 |  | 
NC(=O)CNCCCc1ccccc1 [Compound 49, 2-(3-phenylpropyl)aminoacetamide] | 7 |  | 
CCCCCCNCC(=O)N(C)C [Compound 54] | 4 |  | 
NC(=O)CNCCc1ccccc1 [Compound 36, 2-(2-phenylethyl)aminocacetamide] | 7 |  | 
CCCCNC(=O)C(C(C)C)N(CCCCOc1ccccc1)C(C)=O (stereo not drawn) [Compound 55, N-n-butyl-2-[N-acetyl-N-(4-phenoxybutyl)]aminoisovaleramide] | 6 |  | 
NC(=O)CNCCCCCCO [Compound 4] | 4 | > 3000 | 
CCCCCNCC(N)=O [Compound 26] | 3 |  | DL50 (mice): 1950 mg/kg
NC(=O)CNCCOc1ccccc1 [Compound 57] | 5 |  | 
CCCCCNC(C(N)=O)c1ccccc1 (stereo not drawn) [Compound 46] | 5 |  | 
CCCCCCNCC(=O)NC [Compound 38] | 3 |  | 
CCCCCCNCC(N)=O [Compound 31] | 6 |  | DL50 (mice): 1650 mg/kg
CCCCCNCC(N)=O [Compound 35] | 3 |  | DL50 (mice): > 3000 mg/kg
COC(=O)CCCCCCCNC(C(N)=O)C(N)=O [Compound 23, Methyl 8-(dicarboxamidomethyl)aminooctanoate] | 7 |  | DL50 (mice): > 1000 mg/kg
CCCCCCN(C)CC(N)=O [Compound 30, 2-(N-n-hexyl-N-methylamino)acetamide] | 4 | 570 | 
CCCCCCCCCCCCCCCCCCNCC(N)=O [Compound 10, 2-n-octadecylaminoacetamide] | 1 | > 3000 | 
CCCCCCNCC(=O)NCCCCCC [Compound 37, N-n-hexyl-2-(n-hexylamino)acetamide] | 3 |  | 
